The target of one experiment is human CYP4F2 (Homo sapiens (Human), UniProt P78329). Description: Inhibition test against 20-HETE producing enzyme CYP4F2 (luciferine derivative, luminescence). The experiment is classed as biochemical. The following applies: E. coli membrane fraction expressing human CYP4F2, 2.5 μM luciferine derivative, room temperature 60 minutes. Here is the method: (§1) (1) Inhibition Test for Each Compound of the Present Invention Against 20-HETE Producing Enzymes (CYP4F2 and CYP4A11)
Sequence of human CYP4F2 (P78329 5-520): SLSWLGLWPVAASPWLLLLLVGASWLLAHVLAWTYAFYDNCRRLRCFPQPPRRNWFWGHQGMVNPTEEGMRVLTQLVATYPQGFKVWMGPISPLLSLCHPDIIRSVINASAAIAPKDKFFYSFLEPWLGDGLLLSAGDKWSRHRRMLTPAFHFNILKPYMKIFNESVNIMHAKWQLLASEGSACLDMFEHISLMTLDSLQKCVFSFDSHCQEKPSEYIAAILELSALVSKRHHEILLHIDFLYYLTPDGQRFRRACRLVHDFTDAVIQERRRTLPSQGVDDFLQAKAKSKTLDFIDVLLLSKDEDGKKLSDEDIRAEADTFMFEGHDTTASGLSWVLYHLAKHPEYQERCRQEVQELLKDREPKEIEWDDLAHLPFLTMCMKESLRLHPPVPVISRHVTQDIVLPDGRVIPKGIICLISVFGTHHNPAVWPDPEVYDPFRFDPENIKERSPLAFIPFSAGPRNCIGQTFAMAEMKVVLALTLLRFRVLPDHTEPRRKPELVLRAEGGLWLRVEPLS
(§2) In the CYP4F2 inhibition test, the reaction solution containing each compound [final concentration of 50 mM, KPO4 (pH 7.4), 2.5 μM luciferine derivative, and 1 mM NADPH] was added to an Escherichia coli membrane fraction (100 μg/mL protein) in which human CYP4F2 had been expressed. In the CYP4A11 inhibition test, the reaction solution containing each compound [final concentration of 100 mM, Tris-HCl (pH 7.5), 60 μM luciferine derivative, 1.3 mM NADP^+, 3.3 mM Glucose 6-Phosphate, 3.3 mM MgCl2, and 0.4 U/mL Glucose 6-Phosphate dehydrogenase] was added to an Escherichia coli membrane fraction (100 μg/mL protein) in which human CYP4A11 had been expressed. Following this, the membrane fraction was left to stand at room temperature for 60 minutes to perform an enzymatic reaction. After the reaction, a luciferine detection reagent was added, and the luminescence value was measured using a plate reader. By using that value, the percent inhibition of 20-HETE producing enzyme (%) was calculated according to the equation described below, and the 50% inhibitory concentration (IC50 value) for each compound was calculated. Percent inhibition of 20-HETE producing enzyme (%)=[1−(A−B)/(C−B)]*100
(§3) A: Luminescence value with addition of compound
(§4) B: Luminescence value without addition of compound and enzyme

A further experiment deals with human CYP4A11 (Homo sapiens (Human), UniProt Q02928). Nature of the experiment: Inhibition test against 20-HETE producing enzyme CYP4A11 (luciferine derivative, luminescence). The experiment is classed as biochemical. The following applies: E. coli membrane fraction expressing human CYP4A11, 60 μM luciferine derivative, room temperature 60 minutes. Here is the method:
as §1, §2, §3, §4

Sequence of human CYP4A11 (Q02928 5-519): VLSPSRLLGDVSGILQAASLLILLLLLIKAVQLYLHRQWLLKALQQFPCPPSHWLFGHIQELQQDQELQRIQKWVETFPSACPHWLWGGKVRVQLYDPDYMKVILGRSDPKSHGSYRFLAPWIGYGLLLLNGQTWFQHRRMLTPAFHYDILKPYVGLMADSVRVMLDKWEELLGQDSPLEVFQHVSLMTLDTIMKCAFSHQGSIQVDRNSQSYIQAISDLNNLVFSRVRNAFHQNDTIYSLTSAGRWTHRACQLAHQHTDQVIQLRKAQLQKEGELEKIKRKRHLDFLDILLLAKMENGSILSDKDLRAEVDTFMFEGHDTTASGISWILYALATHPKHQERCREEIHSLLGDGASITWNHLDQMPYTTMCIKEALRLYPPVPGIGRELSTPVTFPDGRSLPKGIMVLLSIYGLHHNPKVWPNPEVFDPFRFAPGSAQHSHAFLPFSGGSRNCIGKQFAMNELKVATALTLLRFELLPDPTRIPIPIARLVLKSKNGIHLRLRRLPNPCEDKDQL

For orientation: IC50 means the concentration that inhibits the measured activity by half. Low readings indicate inhibition by little substance, high ones a need for much substance. With `O=C(O)c1ccc2c(c1)C(CCOc1ccc(-c3ccn[nH]3)nc1)CCC2` (stereo not shown) [Example 5-2], the IC50 on human CYP4F2 amounted to 1700 nM; on human CYP4A11 it was 73 nM.

As for `CC(=O)N1CCC(CCCCCCCCOc2ccc(-c3ccn[nH]3)nc2)(C(=O)O)CC1` [Example 6-1, 1-Acetyl-4-[8-[[6-(1H-pyrazol-5-yl)-3-pyridinyl]oxy]octyl]-4-piperidinecarboxylic Acid], the half-inhibitory concentration (IC50) at human CYP4F2 was found to be 7.9 nM; on human CYP4A11, 770 nM.

With `CC(C)(CCOc1ccc(-c2ccn[nH]2)nc1)CCC(=O)O` [Example 7-1, 4,4-Dimethyl-6-[[6-(1H-pyrazol-5-yl)-3-pyridinyl]oxy]hexanoic Acid], the figures for the half-maximal inhibitory concentration (IC50) against human CYP4F2 and on human CYP4A11 were 48000 nM and 34 nM, respectively.

As to `O=C(O)[C@H]1CC[C@@H](c2cccc(COc3ccc(-c4ccn[nH]4)nc3)c2)CC1` [Example 8-1, cis-4-[3-[[6-(1H-Pyrazol-5-yl)-3-pyridinyl]oxymethyl]phenyl]-1-cyclohexanecarboxylic Acid], the values for the concentration for half-maximal inhibition (IC50) on human CYP4F2 and on human CYP4A11 were 790 nM and 20 nM, respectively.

In the case of `O=C(O)[C@H]1CC[C@H](c2cccc(COc3ccc(-c4ccn[nH]4)nc3)c2)CC1` [Example 8-2, trans-4-[3-[[6-(1H-Pyrazol-5-yl)-3-pyridinyl]oxymethyl]phenyl]-1-cyclohexanecarboxylic Acid], the IC50 on human CYP4F2 was found to be 6500 nM; at human CYP4A11 it was 19 nM.

Turning to `O=C(O)C1CCCC(c2cccc(COc3ccc(-c4ccn[nH]4)nc3)c2)C1` (stereo not shown) [Example 8-3], the half-inhibitory concentration (IC50) came out at 860 nM at human CYP4F2 and 28 nM against human CYP4A11.

On to `O=C(O)c1ccccc1-c1cccc(COc2ccc(-c3ccn[nH]3)nc2)c1` [Example 8-4], for which the results for the IC50 on human CYP4F2 and at human CYP4A11 were 4300 nM and 250 nM, respectively.

With `CC(C)(C(=O)O)c1cccc(S(=O)(=O)CCCCOc2ccc(-c3ccn[nH]3)nc2)c1` [Example 8-5], the figures for the half-maximal inhibitory concentration (IC50) on human CYP4F2 and against human CYP4A11 were 2300 nM and 560 nM, respectively.

Consider `CC(C)(CCN1CCc2ccc(COc3ccc(-c4ccn[nH]4)nc3)cc2C1=O)C(=O)O` [Example 8-6], for which the figures for the IC50 against human CYP4F2 and on human CYP4A11 were 53 nM and 2500 nM, respectively.

On to `O=C(O)CCc1ccc(CCCOc2ccc(-c3ccn[nH]3)nc2)cc1` [Example 8-7], for which the IC50 against human CYP4F2 came out at 280 nM; at human CYP4A11 it was 440 nM.

As to `O=C(O)Cc1ccc(CCCOc2ccc(-c3ccn[nH]3)nc2)cc1` [Example 8-8], the IC50 at human CYP4F2 is 1100 nM; against human CYP4A11, 260 nM.

As to `O=C(O)COc1ccc(COc2ccc(-c3ccn[nH]3)nc2)cc1` [Example 8-9], the values for the IC50 at human CYP4F2 and against human CYP4A11 were 6200 nM and 29 nM, respectively.

Regarding `O=C(O)c1ccnc(-c2cccc(COc3ccc(-c4ccn[nH]4)nc3)c2)c1` [Example 8-10], the IC50 at human CYP4F2 came to 1300 nM; against human CYP4A11, 35 nM.

Turning to `O=C(O)c1cc(-c2cccc(COc3ccc(-c4ccn[nH]4)nc3)c2)ccn1` [Example 8-11], the IC50 is 120 nM against human CYP4F2 and 14 nM against human CYP4A11.

Take `O=C(O)Cn1cc(CCCCOc2ccc(-c3ccn[nH]3)nc2)cn1` [Example 8-12]: the results for the IC50 at human CYP4F2 and against human CYP4A11 were 5000 nM and 100 nM, respectively.

Turning to `CC(C)(C(=O)O)n1cc(CCCCOc2ccc(-c3ccn[nH]3)nc2)cn1` [Example 8-13], the IC50 against human CYP4F2 is 8300 nM; against human CYP4A11, 120 nM.

On to `CC(C)(C(=O)O)n1ccc(CCCCOc2ccc(-c3ccn[nH]3)nc2)n1` [Example 8-14], for which the IC50 against human CYP4F2 was 11000 nM; at human CYP4A11 it was 68 nM.

As for `O=C(O)Cn1ccc(CCCCOc2ccc(-c3ccn[nH]3)nc2)cc1=O` [Example 8-15], the figures for the IC50 at human CYP4F2 and against human CYP4A11 were 1400 nM and 530 nM, respectively.

As to `O=C(O)Cc1cccc(COc2ccc(-c3ccn[nH]3)nc2)n1` [Example 8-16], the half-maximal inhibitory concentration (IC50) against human CYP4F2 was 680 nM; against human CYP4A11 it was 750 nM.

Regarding `O=C(O)C12CC(COc3ccc(-c4ccn[nH]4)nc3)(C1)C2` [Example 8-17], the IC50 against human CYP4F2 worked out at 22000 nM; against human CYP4A11 it was 520 nM.

In the case of `O=C(O)C12CCC(COc3ccc(-c4ccn[nH]4)nc3)(CC1)CC2` [Example 8-18], the results for the half-inhibitory concentration (IC50) on human CYP4F2 and against human CYP4A11 were 16000 nM and 52 nM, respectively.

As for `CC(C)(OCCCCOCCCCOc1ccc(-c2ccn[nH]2)nc1)C(=O)O` [Example 9-2], the IC50 against human CYP4F2 amounted to 1100 nM; against human CYP4A11 it was 1800 nM.

As to `CC(C)(OCCCOCCCCOc1ccc(-c2ccn[nH]2)nc1)C(=O)O` [Example 9-3], the half-inhibitory concentration (IC50) at human CYP4F2 amounted to 490 nM; against human CYP4A11 it was 1400 nM.

Consider `O=C(O)CCCCOc1ccc(-c2ccn[nH]2)nc1` [Example 10-1, 5-[[6-(1H-Pyrazol-5-yl)-3-pyridinyl]oxy]pentanoic Acid], for which the concentration for half-maximal inhibition (IC50) came to 19000 nM against human CYP4F2 and 560 nM against human CYP4A11.

On to `O=C(O)COc1cccc(COc2ccc(-c3ccn[nH]3)nc2)c1` [Example 10-2, 2-[3-[[6-(1H-Pyrazol-5-yl)-3-pyridinyl]oxymethyl]phenoxy]acetic Acid], for which the IC50 at human CYP4F2 was found to be 1100 nM; at human CYP4A11 it was 23 nM.

In the case of `Oc1cc(CCCOc2ccc(-c3ccn[nH]3)nc2)cc(F)c1F` [Example 11-1, 2,3-Difluoro-5-[3-[[6-(1H-pyrazol-5-yl)-3-pyridinyl]oxy]propyl]phenol], the figures for the IC50 at human CYP4F2 and on human CYP4A11 were 5.1 nM and 140 nM, respectively.

`Oc1cccc(CCCOc2ccc(-c3ccn[nH]3)nc2)c1` [Example 11-2]: the values for the IC50 against human CYP4F2 and at human CYP4A11 were 19 nM and 520 nM, respectively.

Consider `Oc1cc(CCCOc2ccc(-c3ccn[nH]3)nc2)ccc1F` [Example 11-3], for which the IC50 was 7.3 nM against human CYP4F2 and 270 nM at human CYP4A11.

Take `NS(=O)(=O)CCCCCOc1ccc(-c2ccn[nH]2)nc1` [Example 11-4, 5-[[6-(1H-Pyrazol-5-yl)-3-pyridinyl]oxy]-1-pentanesulfonamide]: the IC50 on human CYP4F2 came to 1300 nM; on human CYP4A11, 4500 nM.

Regarding `Cc1ccc(COc2ccc(-c3ccn[nH]3)nc2)cc1O` [Example 12-1, 2-Methyl-5-[[6-(1H-pyrazol-5-yl)-3-pyridinyl]oxymethyl]phenol], the results for the IC50 on human CYP4F2 and at human CYP4A11 were 6.2 nM and 260 nM, respectively.

With `Oc1cc(COc2ccc(-c3ccn[nH]3)nc2)ccc1F` [Example 12-2], the half-inhibitory concentration (IC50) against human CYP4F2 came out at 11 nM; against human CYP4A11, 310 nM.

With `Oc1cc(F)cc(COc2ccc(-c3ccn[nH]3)nc2)c1` [Example 12-3], the half-maximal inhibitory concentration (IC50) against human CYP4F2 came to 25 nM; against human CYP4A11, 290 nM.

As for `Oc1cccc(COc2ccc(-c3ccn[nH]3)nc2)c1` [Example 13-1, 3-[[6-(1H-Pyrazol-5-yl)-3-pyridinyl]oxymethyl]phenol], the IC50 against human CYP4F2 turned out to be 34 nM; against human CYP4A11 it was 610 nM.

`Oc1ccccc1CCOc1ccc(-c2ccn[nH]2)nc1` [Example 13-2]: the results for the half-maximal inhibitory concentration (IC50) at human CYP4F2 and at human CYP4A11 were 13 nM and 400 nM, respectively.

As for `Oc1cccc(CCOc2ccc(-c3ccn[nH]3)nc2)c1` [Example 13-3], the values for the IC50 on human CYP4F2 and at human CYP4A11 were 19 nM and 300 nM, respectively.

`O=C(O)CCS(=O)(=O)c1cccc(COc2ccc(-c3ccn[nH]3)nc2)c1` [Example 14-1, 3-[3-[[6-(1H-Pyrazol-5-yl)-3-pyridinyl]oxymethyl]phenyl]sulfonylpropanoic Acid]: the IC50 against human CYP4F2 stood at 2200 nM; at human CYP4A11, 30 nM.

Regarding `O=C(O)c1cnn(CCCOc2ccc(-c3ccn[nH]3)nc2)c1` [Example 15-2, 1-[3-[[6-(1H-Pyrazol-5-yl)-3-pyridinyl]oxy]propyl]-4-pyrazolecarboxylic Acid], the half-inhibitory concentration (IC50) was determined as 25000 nM on human CYP4F2 and 690 nM on human CYP4A11.

Turning to `O=C(O)c1cnn(CCCCOc2ccc(-c3ccn[nH]3)nc2)c1` [Example 15-3], the half-maximal inhibitory concentration (IC50) against human CYP4F2 stood at 6300 nM; on human CYP4A11, 130 nM.

With `O=C(O)Cn1ncc2cc(COc3ccc(-c4ccn[nH]4)nc3)ccc21` [Example 16-1, 2-[5-[[6-(1H-Pyrazol-5-yl)-3-pyridinyl]oxymethyl]-1-indazolyl]acetic Acid], the IC50 against human CYP4F2 worked out at 1400 nM; on human CYP4A11, 53 nM.

Regarding `CC(C)(C(=O)O)C(=O)N1CCc2ccc(COc3ccc(-c4ccn[nH]4)nc3)cc2C1` [Example 17-1, 2,2-Dimethyl-3-oxo-3-[7-[[6-(1H-pyrazol-5-yl)-3-pyridinyl]oxymethyl]-3,4-dihydro-1H-isoquinolin-2-yl]propanoic Acid], the IC50 was found to be 180 nM on human CYP4F2 and 1400 nM against human CYP4A11.

Regarding `O=C(O)c1cccc(-c2cccc(COc3ccc(-c4ccn[nH]4)nc3)c2)n1` [Example 18-1, 6-[3-[[6-(1H-Pyrazol-5-yl)-3-pyridinyl]oxymethyl]phenyl]-2-pyridinecarboxylic Acid], the concentration for half-maximal inhibition (IC50) on human CYP4F2 amounted to 460 nM; at human CYP4A11 it was 13 nM.

With `O=C(O)c1ccc(-c2cccc(COc3ccc(-c4ccn[nH]4)nc3)c2)nc1` [Example 18-2], the IC50 turned out to be 230 nM against human CYP4F2 and 12 nM against human CYP4A11.

Regarding `O=C(O)c1cncc(-c2cccc(COc3ccc(-c4ccn[nH]4)nc3)c2)n1` [Example 18-3], the IC50 at human CYP4F2 is 510 nM; on human CYP4A11, 24 nM.

As to `O=C(O)c1cnc(-c2cccc(COc3ccc(-c4ccn[nH]4)nc3)c2)cn1` [Example 18-4], the 50% inhibitory concentration (IC50) on human CYP4F2 is 490 nM; at human CYP4A11, 22 nM.
